Literature values as cited in US20040202640A1, “Method for topical treatment of scars with rotein Kinase C inhibitors” (priority 2003, published 2004).

What was measured:
[1] = tested on: phorbol ester induced omithine decarboxylase activity; conditions: mouse skin
calmodulin (CaM) = calmodulin (CaM) (Homo sapiens, UniProt P0DP23)

Structure (SMILES) | phorbol ester induced omithine decarboxylase activity [1] | PKC inhibition (PKC) | CaM function (calmodulin (CaM))
CCCCCCCCCCCCC/C=C/[C@@H](O)[C@@H](N)CO [Sphingosine] | inhibit | dose-dependently inhibits PKC | inhibits CaM function
CCCCCCCCCCCCC/C=C/[C@@H](O)[C@@H](N)COP(=O)(O)O [sphingosingosine-1-phosphate, sphingosine-1 phosphate] |  | more effective PKC inhibitor than sphingosine | 
